In experiment [1] the target is T1, A1 adenosine receptors (Rattus norvegicus, UniProt P25099).
T1 construct: from tissue
T1 sequence (P25099 1-326): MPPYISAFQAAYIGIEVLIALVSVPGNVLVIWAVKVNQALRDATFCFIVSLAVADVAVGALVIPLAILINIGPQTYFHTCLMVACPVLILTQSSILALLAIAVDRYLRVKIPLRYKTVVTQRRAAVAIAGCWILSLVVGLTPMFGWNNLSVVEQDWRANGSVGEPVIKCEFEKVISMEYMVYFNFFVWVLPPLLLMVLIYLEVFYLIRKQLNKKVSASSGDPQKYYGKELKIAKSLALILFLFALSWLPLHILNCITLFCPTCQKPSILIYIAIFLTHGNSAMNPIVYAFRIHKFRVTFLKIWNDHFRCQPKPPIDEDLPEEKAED
In words: Displacement of specific [3H]R-PIA binding in rat brain membranes. Conditions: for Ki: [3H]R-PIA, rat brain membranes, n = 3-5, read-out: rA1 Ki ± S.E.M.; for inhibition at 100 µM: read-out: rA1 % inhibition (percentage of specific binding displaced); for rA1 percentage of specific binding displaced: Table 2.

For experiment [2], the target named is T2, A2A adenosine receptors (Rattus norvegicus, UniProt P30543).
T2 construct: from tissue
T2 sequence (P30543 whole entry): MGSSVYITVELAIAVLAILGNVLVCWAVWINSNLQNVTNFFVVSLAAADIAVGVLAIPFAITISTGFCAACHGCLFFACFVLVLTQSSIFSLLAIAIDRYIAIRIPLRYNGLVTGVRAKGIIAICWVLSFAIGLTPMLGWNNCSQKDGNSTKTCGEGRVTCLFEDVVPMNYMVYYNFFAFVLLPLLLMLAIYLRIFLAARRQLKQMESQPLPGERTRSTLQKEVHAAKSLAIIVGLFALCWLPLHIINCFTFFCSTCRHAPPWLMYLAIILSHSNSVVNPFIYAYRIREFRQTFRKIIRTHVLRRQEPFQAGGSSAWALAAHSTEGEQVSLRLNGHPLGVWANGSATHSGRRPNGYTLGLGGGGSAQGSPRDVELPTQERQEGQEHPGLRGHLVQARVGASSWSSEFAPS
Briefly: Displacement of specific [3H]CGS 21680 binding in rat striatal membranes. As to conditions: for Ki: [3H]CGS 21680, rat striatal membranes, n = 3-6, read-out: rA2A Ki ± S.E.M.

For experiment [3], the target named is T3, human A3 receptors (Homo sapiens, UniProt P0DMS8).
T3 construct: expressed in transfected cells
T3 sequence (P0DMS8 1-318): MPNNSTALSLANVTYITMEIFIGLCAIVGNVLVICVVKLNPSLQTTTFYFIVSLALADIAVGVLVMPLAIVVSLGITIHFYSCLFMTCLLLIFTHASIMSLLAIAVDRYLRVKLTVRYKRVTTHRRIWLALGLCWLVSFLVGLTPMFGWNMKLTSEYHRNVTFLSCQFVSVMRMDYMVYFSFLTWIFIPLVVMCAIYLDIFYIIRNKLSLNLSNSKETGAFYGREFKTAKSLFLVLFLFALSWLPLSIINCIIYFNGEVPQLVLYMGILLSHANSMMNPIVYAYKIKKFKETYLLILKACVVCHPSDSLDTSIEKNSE
Briefly: Displacement of specific [125I]AB-MECA binding at human A3 receptors expressed in HEK cells, in membranes. As to conditions: for Ki: [125I]AB-MECA, HEK cell membranes, n = 3-4, read-out: hA3 Ki ± S.E.M.; for rA1/hA3: ratio of affinities rat A1 vs human A3.

The target of experiment [4] is T4, rat A3 receptors (Rattus norvegicus, UniProt P28647).
T4 construct: expressed in transfected cells
T4 sequence (P28647 1-320): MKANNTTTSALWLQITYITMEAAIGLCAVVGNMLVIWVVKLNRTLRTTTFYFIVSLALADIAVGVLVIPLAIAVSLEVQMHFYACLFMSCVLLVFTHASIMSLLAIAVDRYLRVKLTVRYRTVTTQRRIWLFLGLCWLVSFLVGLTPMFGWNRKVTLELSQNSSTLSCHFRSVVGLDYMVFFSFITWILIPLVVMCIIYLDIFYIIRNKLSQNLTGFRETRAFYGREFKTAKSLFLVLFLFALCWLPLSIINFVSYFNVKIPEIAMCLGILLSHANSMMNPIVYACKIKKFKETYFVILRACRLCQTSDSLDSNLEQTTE
In words: Displacement of specific [125I]AB-MECA binding at rat A3 receptors stably expressed in CHO cells. As to conditions: for rA3/hA3: ratio of affinities at rat vs. human A3 receptors; for rA1/rA3: ratio of affinities rat A1 vs rat A3.

Setting [5] is: Table 4, [125I]AB-MECA, CHO cells, n = 3-5, read-out: rA3 Ki.

Here are results for 17 molecules from patent publication US6376521B1, “A3 adenosine receptor antagonists” (The United States of America as represented by the …, priority 1998, dated 2002).

Where two headings read alike, the source gives them in different places. Bounds are passed on as bounds.

As usually defined, the Ki is the dissociation constant of the complex between target and ligand, obtained from inhibition or displacement. As for `CCOC(=O)c1c(-c2cccc(Cl)c2)nc(CC)c(C(=O)SCC)c1CC` [Compound 51, 5-Ethyl 2,4-diethyl-3-(ethylsulfanylcarbonyl)-6-(m-chlorophenyl)pyridine-5-carboxylate], the Ki in experiment [1] (Table 2, compounds 33-58) was found to be 8.2 ± 2.96 µM; in experiment [2] (Table 2, compounds 33-58), 8.91 ± 0.97 µM; in experiment [3] (Table 2, compounds 33-58), 0.0134 ± 0.0015 µM; in experiment [4] (setting [5]), 0.44 ± 0.033 µM. Further, in experiment [3] (Table 2), the rA1/hA3 turned out to be 610. Moreover, the rA3/hA3 in experiment [4] (Table 4) turned out to be 33. Besides, in experiment [4] (Table 4), the rA1/rA3 turned out to be 19.
For orientation: inhibition means the change of the read-out against control, counted positive when it falls. For the molecule `CCCC1=C(C(=O)SCC)C(CC)C(C(=O)OCC)=C(c2ccccc2)N1` (racemic) [Compound 76, 5-Ethyl 2-propyl-4-ethyl-6-phenyl-3-(ethylsulfanylcarbonyl)-1,4-(±)-dihydropyridine-5-carboxylate], the inhibition at 100 µM in experiment [1] (Table 3, at 10^−4 M) worked out at 26 ± 19%. For the same molecule, the “rA2A displacement of specific binding (class d)” value (from here on “rA2A displacement”) in experiment [2] (Table 3, at 10^−4 M) is given as “d (10^−4) (Displacement of < 10% of specific binding at the indicated concentration (M).)”. In experiment [3] (Table 3), the Ki is 2.09 ± 0.04 µM and the rA1/hA3 was greater than 20. For the same molecule, the Ki in experiment [4] (setting [5]) came to 2.73 ± 0.14 µM. In experiment [4] (Table 4), the rA3/hA3 came to 1.3 and the rA1/rA3 is on record as greater than 30.
In the case of `CCSC(=O)C1=C(C)NC(c2ccccc2)=C(C(=O)OCc2ccccc2)C1CC` (racemic) [Compound 65, 5-Benzyl 2-methyl-4ethyl-6-phenyl-3-(ethylsulfanylcarbonyl)-1,4-(±)-dihydropyridine-5-carboxylate], the inhibition at 100 µM in experiment [1] (Table 3, at 10^−4 M) was 45 ± 2%. The Ki in experiment [2] (Table 3) was determined as 14.3 ± 4.2 µM. Besides, in experiment [3] (Table 3), the Ki stood at 1.65 ± 0.4 µM and the rA1/hA3 is greater than 50. Besides, the Ki in experiment [4] (setting [5]) was found to be 2.8 ± 0.28 µM. Besides, in experiment [4] (Table 4), the rA3/hA3 is 1.7 and the rA1/rA3 was greater than 20.
As for `CCOC(=O)C1=C(c2ccccc2)NC(C)=C(C(=O)SCC)C1CC` (racemic) [Compound 62, 5-Ethel 2-methyl-4ethyl-6-phenyl-3-(ethylsulfanylcarbonyl)-1,4-(±)-dihydropyridine-5-carboxylate], the Ki in experiment [1] (Table 3) is 35.4 ± 4.5 µM; in experiment [2] (Table 3), 54.8 ± 18.8 µM; in experiment [4] (setting [5]), 4.6 ± 0.38 µM.
`CCOC(=O)c1c(C2CCCC2)nc(CC)c(C(=O)SCC)c1CC` [Compound 52, 5-Ethyl 2,4-diethyl-3-(ethylsulfanylcarbonyl)-6-cyclopentylpyridine-5-carboxylate]: the Ki in experiment [1] (Table 2, compounds 33-58) turned out to be 55.3 ± 14.7 µM; in experiment [2] (Table 2, compounds 33-58) it was 26.1 ± 6.2 µM; in experiment [3] (Table 2, compounds 33-58), 4.01 ± 2.49 µM; in experiment [4] (setting [5]) it was 2.8 ± 0.22 µM. The rA1/hA3 in experiment [3] (Table 2) stood at 14. Moreover, in experiment [4] (Table 4), the rA3/hA3 turned out to be 0.83. The rA1/rA3 in experiment [4] (Table 4) is reported as greater than 20.
`CCCC1C(C(=O)SCC)=C(C)NC(c2ccccc2)=C1C(=O)OCC` (racemic) [Compound 64, 5-Ethyl 2-methyl-4-propyl-6-phenyl-3-(ethylsulfanylcarbonyl)-1,4-(±)-dihydropyridine-5-carboxylate]: the inhibition at 100 µM worked out at 48 ± 5% in experiment [1] (Table 3, at 10^−4 M) and 29 ± 10% in experiment [2] (Table 3, at 10^−4 M, read-out: rA2A % inhibition (percentage of specific binding displaced)). For the same molecule, in experiment [4] (setting [5]), the Ki worked out at 3.1 ± 0.78 µM.
Turning to `CCOC(=O)C1=C(c2ccccc2)NC(C)=C(C(=O)SCCOC)C1CC` (racemic) [Compound 63, 5-Ethyl 2-methyl-4-ethyl-6-phenyl-3-[(2-methoxy-(ethylsulfanylcarbonyl)]-1,4-(±)-dihydropyridine-5-carboxylate], in experiment [1] (Table 3, at 10^−4 M), the “rA1 % inhibition (percentage of specific binding displaced)” value was found to be 36 ± 14%. For the same molecule, the Ki in experiment [2] (Table 3) is 12.5 ± 2.5 µM; in experiment [3] (Table 3), 4.58 ± 0.35 µM. Further, the rA1/hA3 in experiment [3] (Table 3) was greater than 10.
`CCOC(=O)C1=C(C)NC(c2ccccc2)=C(C(=O)OCC)C1C(OC)OC` (racemic) [Compound 66, 3,5-Diethyl 2-methyl-6-phenyl-4-(dimethoxymethyl)-1,4-(±)-dihydropyridine-3,5-dicarboxylate]: the inhibition at 100 µM in experiment [1] (Table 3, at 10^−4 M) came to 32 ± 5%. Moreover, in experiment [2] (Table 3, at 10^−4 M), the “rA2A displacement” value is “d (10^−4) (Displacement of < 10% of specific binding at the indicated concentration (M).)”. In experiment [3] (Table 3), the Ki was 15.3 ± 3.9 µM and the rA1/hA3 was greater than 5.
As to `CCOC(=O)c1c(C)nc(-c2ccccc2)c(C(=O)OCc2ccccc2)c1C#Cc1ccccc1` [Compound 43], the Ki in experiment [1] (Table 2, compounds 33-58) was determined as 11.6 ± 4.8 µM; in experiment [3] (Table 2, compounds 33-58), 2.75 ± 0.78 µM. The “rA2A percentage of specific binding displaced” value in experiment [2] (Table 2, at 10^−4 M) was 43 ± 20% (10^−4). The rA1/hA3 in experiment [3] (Table 2) is 4.2.
As to `CCOC(=O)c1c(C)nc(C2CCCC2)c(C(=O)OCc2ccccc2)c1C#Cc1ccccc1` [Compound 45, 3-Ethyl 5-benzyl 2-methyl-4-phenylethynyl-6-cyclopentylpyridine-3,5-dicarboxylate], the inhibition constant Ki in experiment [1] (Table 2, compounds 33-58) is 56.2 ± 20.8 µM; in experiment [2] (Table 2, compounds 33-58) it was 22.9 ± 5 µM; in experiment [3] (Table 2, compounds 33-58) it was 3.85 ± 0.79 µM. Also, the rA1/hA3 in experiment [3] (Table 2) amounted to 15.
As for `CCCOC(=O)c1c(-c2cccc(Cl)c2)nc(CC)c(C(=O)SCCC)c1CC` [Compound 54, 5-Propyl 2,4-diethyl-3-propylsulfanylcarbonyl-6-(m-chlorophenyl)pyridine-5-carboxylate], the inhibition constant (Ki) in experiment [1] (Table 2, compounds 33-58) came to 41.4 ± 11.9 µM; in experiment [2] (Table 2, compounds 33-58), 24.1 ± 7.9 µM; in experiment [4] it was 0.814 ± 0.037 µM.
With `CCCOC(=O)c1c(C)nc(-c2ccccc2)c(C(=O)OCC)c1C` [Compound 34, 3-Propyl 5-ethyl 2,4-dimethyl-6-phenylpyridine-3,5-dicarboxylate], the Ki in experiment [1] (Table 2, compounds 33-58) came to 5.05 ± 0.54 µM; in experiment [2] (Table 2, compounds 33-58), 24.5 ± 8.5 µM; in experiment [3] (Table 2, compounds 33-58), 0.215 ± 0.022 µM. In addition, the rA1/hA3 in experiment [3] (Table 2) is 23.
The corresponding values for `CCOC(=O)c1c(-c2ccccc2)nc(CCOC)c(C(=O)SCC)c1CC` [Compound 56, 5-Ethyl 2-(2-methoxylethyl)-4-ethyl-3-(ethylsulfanylcarbonyl)-6-phenylpyridine-5-carboxylate] are 10.1 ± 2.1 µM, 12.6 ± 1.7 µM, 0.0168 ± 0.002 µM and 600.
The corresponding values for `CCOC(=O)c1c(C)nc(-c2ccccc2)c(C(=O)OCC)c1C(OC)OC` [Compound 40, 3,5-Diethyl 2-methyl-4-(dimethoxymethyl)-6-phenylpyridine-3,5-dicarboxylate] are 1.95 ± 0.43 µM, 2.88 ± 0.61 µM, 0.783 ± 0.154 µM and 2.5.
Consider `CCOC(=O)c1c(-c2ccccc2)nc(C2CCC2)c(C(=O)SCC)c1CC` [Compound 58, 5-Ethyl 2-cyclobutyl-4-ethyl-3-(ethylsulfanylcarbonyl)-6-phenylpyridine-5-carboxylate], for which the “rA1 percentage of specific binding displaced” value (from here on “rA1 percentage”) in experiment [1] (at 10^−4 M) is reported as 30% (10^−4). The “rA2A percentage of specific binding displaced” value in experiment [2] (Table 2, at 10^−4 M) is recorded as 22% (10^−4). Also, the Ki in experiment [3] (Table 2, compounds 33-58) worked out at 0.145 ± 0.044 µM. In addition, the rA1/hA3 in experiment [3] (Table 2) is greater than 500.
Take `CCCOC(=O)c1c(-c2ccccc2)nc(CC)c(C(=O)SCCOC2CCCCO2)c1CCC` (stereo not shown) [Compound 13]: the “rA1 percentage” value in experiment [1] (at 10^−4 M) is recorded as 18 ± 1% (10^−4). The “rA2A displacement” value in experiment [2] (Table 2, at 10^−4 M) is recorded as “d (10^−4) (Displacement of <10% of specific binding at the indicated concentration (M).)”. The rA1/hA3 in experiment [3] (Table 2) is on record as greater than 20.
With `CCOC(=O)c1c(-c2ccccc2)nc(C)c(C(=O)SCCOC)c1CC` [Compound 37, 5-Ethyl 2-methyl-4-ethyl-3-[2-methoxy-(ethylsulfanylcarbonyl)]-6-phenylpyridine-5-carboxylate], the “rA1 percentage” value in experiment [1] (at 10^−4 M) is 36 ± 11% (10^−4). Besides, the Ki in experiment [2] (Table 2, compounds 33-58) came to 7.98 ± 1.36 µM; in experiment [3] (Table 2, compounds 33-58), 0.165 ± 0.012 µM. Moreover, in experiment [3] (Table 2), the rA1/hA3 is on record as greater than 500.
